Experimental data published in PubChem BioAssay (NCI).
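Five compound concentrations were applied to cells in 96-well plates for 48 hours; endpoints were derived by simple linear interpolation of the resulting dose-response curve. TGI is the concentration that stops growth completely.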

Experiments:
Test in all cases: DTP human tumour cell line panel, 48 h
SK-MEL-2 melanoma = system: SK-MEL-2 melanoma
SF-268 CNS = system: SF-268 CNS
MOLT-4 leukemia = system: MOLT-4 leukemia
SK-OV-3 ovarian = system: SK-OV-3 ovarian
HOP-92 NSCLC = system: HOP-92 NSCLC
NCI/ADR-RES ovarian = system: NCI/ADR-RES ovarian
CCRF-CEM leukemia = system: CCRF-CEM leukemia
MCF7 breast = system: MCF7 breast
CAKI-1 renal = system: CAKI-1 renal
K-562 leukemia = system: K-562 leukemia
M14 melanoma = system: M14 melanoma
SW-620 colon = system: SW-620 colon
SK-MEL-28 melanoma = system: SK-MEL-28 melanoma
IGROV1 ovarian = system: IGROV1 ovarian
ACHN renal = system: ACHN renal
RPMI-8226 leukemia = system: RPMI-8226 leukemia
MDA-MB-435 = system: MDA-MB-435
786-0 renal = system: 786-0 renal
NCI-H23 lung = system: NCI-H23 lung
OVCAR-4 ovarian = system: OVCAR-4 ovarian
A549 NSCLC = system: A549 NSCLC
U251 CNS = system: U251 CNS
MALME-3M melanoma = system: MALME-3M melanoma
COLO 205 colon = system: COLO 205 colon
SNB-75 CNS = system: SNB-75 CNS
NCI-H460 lung = system: NCI-H460 lung
SR leukemia = system: SR leukemia
RXF 393 renal = system: RXF 393 renal
T-47D breast = system: T-47D breast
HOP-62 NSCLC = system: HOP-62 NSCLC
UACC-62 melanoma = system: UACC-62 melanoma
HL-60(TB) leukemia = system: HL-60(TB) leukemia
SK-MEL-5 melanoma = system: SK-MEL-5 melanoma
BT-549 breast = system: BT-549 breast
OVCAR-3 ovarian = system: OVCAR-3 ovarian
NCI-H226 lung = system: NCI-H226 lung
TK-10 renal = system: TK-10 renal
SNB-19 CNS = system: SNB-19 CNS
HS 578T breast = system: HS 578T breast
HCT-116 colon = system: HCT-116 colon
SF-295 CNS = system: SF-295 CNS
EKVX NSCLC = system: EKVX NSCLC
UO-31 renal = system: UO-31 renal
UACC-257 melanoma = system: UACC-257 melanoma
HCT-15 colon = system: HCT-15 colon
PC-3 prostate = system: PC-3 prostate
SF-539 CNS = system: SF-539 CNS
HCC-2998 colon = system: HCC-2998 colon
KM12 colon = system: KM12 colon
HT29 colon = system: HT29 colon
OVCAR-5 ovarian = system: OVCAR-5 ovarian
MDA-MB-231 breast = system: MDA-MB-231 breast
NCI-H522 lung = system: NCI-H522 lung
OVCAR-8 ovarian = system: OVCAR-8 ovarian

CCOC(=O)C1(C(=O)OCC)CCC(C(OC)OC)C(CC(=O)OC)C1 (stereo unspecified)
TGI (SK-MEL-2 melanoma): > 10 µM
TGI (SF-268 CNS): > 10 µM
TGI (MOLT-4 leukemia): > 10 µM
TGI (SK-OV-3 ovarian): > 10 µM
TGI (HOP-92 NSCLC): > 10 µM
TGI (NCI/ADR-RES ovarian): > 10 µM
TGI (CCRF-CEM leukemia): > 10 µM
TGI (MCF7 breast): > 10 µM
TGI (CAKI-1 renal): > 10 µM
TGI (K-562 leukemia): > 10 µM
TGI (M14 melanoma): > 10 µM
TGI (SW-620 colon): > 10 µM
TGI (SK-MEL-28 melanoma): > 10 µM
TGI (IGROV1 ovarian): > 10 µM
TGI (ACHN renal): > 10 µM
TGI (RPMI-8226 leukemia): > 10 µM
TGI (MDA-MB-435): > 10 µM
TGI (786-0 renal): > 10 µM
TGI (NCI-H23 lung): > 10 µM
TGI (OVCAR-4 ovarian): > 10 µM
TGI (A549 NSCLC): > 10 µM
TGI (U251 CNS): > 10 µM
TGI (MALME-3M melanoma): > 10 µM
TGI (COLO 205 colon): > 10 µM
TGI (SNB-75 CNS): > 10 µM
TGI (NCI-H460 lung): > 10 µM
TGI (SR leukemia): > 10 µM
TGI (RXF 393 renal): > 10 µM
TGI (T-47D breast): > 10 µM
TGI (HOP-62 NSCLC): > 10 µM
TGI (UACC-62 melanoma): > 10 µM
TGI (HL-60(TB) leukemia): > 10 µM
TGI (SK-MEL-5 melanoma): > 10 µM

Cc1cccc(NS(=O)(=O)c2ccc(N=Nc3c(O)c(C(=O)O)cc4ccccc34)cc2)n1
TGI (SK-MEL-2 melanoma): > 100 µM
TGI (SF-268 CNS): > 100 µM
TGI (MOLT-4 leukemia): > 100 µM
TGI (SK-OV-3 ovarian): > 100 µM
TGI (BT-549 breast): > 100 µM
TGI (HOP-92 NSCLC): > 100 µM
TGI (OVCAR-3 ovarian): > 100 µM
TGI (NCI-H226 lung): > 100 µM
TGI (NCI/ADR-RES ovarian): > 100 µM
TGI (CCRF-CEM leukemia): > 100 µM
TGI (TK-10 renal): > 100 µM
TGI (MCF7 breast): > 100 µM
TGI (CAKI-1 renal): > 100 µM
TGI (SNB-19 CNS): > 100 µM
TGI (K-562 leukemia): > 100 µM
TGI (M14 melanoma): > 100 µM
TGI (SW-620 colon): > 100 µM
TGI (SK-MEL-28 melanoma): > 100 µM
TGI (HS 578T breast): > 100 µM
TGI (IGROV1 ovarian): > 100 µM
TGI (ACHN renal): > 100 µM
TGI (HCT-116 colon): > 100 µM
TGI (SF-295 CNS): > 100 µM
TGI (EKVX NSCLC): > 100 µM
TGI (RPMI-8226 leukemia): > 100 µM
TGI (UO-31 renal): > 100 µM
TGI (MDA-MB-435): > 100 µM
TGI (786-0 renal): > 100 µM
TGI (NCI-H23 lung): > 100 µM
TGI (OVCAR-4 ovarian): > 100 µM
TGI (UACC-257 melanoma): > 100 µM
TGI (A549 NSCLC): > 100 µM
TGI (HCT-15 colon): > 100 µM
TGI (U251 CNS): > 100 µM
TGI (PC-3 prostate): > 100 µM
TGI (MALME-3M melanoma): > 100 µM
TGI (SF-539 CNS): > 100 µM
TGI (HCC-2998 colon): > 100 µM
TGI (KM12 colon): > 100 µM
TGI (HT29 colon): > 100 µM
TGI (COLO 205 colon): > 100 µM
TGI (SNB-75 CNS): > 100 µM
TGI (OVCAR-5 ovarian): > 100 µM
TGI (NCI-H460 lung): > 100 µM
TGI (SR leukemia): > 100 µM
TGI (RXF 393 renal): > 100 µM
TGI (MDA-MB-231 breast): > 100 µM
TGI (HOP-62 NSCLC): > 100 µM
TGI (UACC-62 melanoma): > 100 µM
TGI (HL-60(TB) leukemia): > 100 µM
TGI (SK-MEL-5 melanoma): > 100 µM
TGI (NCI-H522 lung): > 100 µM
TGI (OVCAR-8 ovarian): > 100 µM
